Here are results for 30 compounds from patent US9290453B2 (Merck Sharp & Dohme Corp., priority 2010, dated 2016).

The target of the first experiment is T1, hCRTH2 (Homo sapiens, UniProt Q9Y5Y4).
T1 construct: expressed in transfected cells; host or cells: HEK (human embryonic kidney) cells expressing hCRTH2
T1 sequence (Q9Y5Y4 1-395): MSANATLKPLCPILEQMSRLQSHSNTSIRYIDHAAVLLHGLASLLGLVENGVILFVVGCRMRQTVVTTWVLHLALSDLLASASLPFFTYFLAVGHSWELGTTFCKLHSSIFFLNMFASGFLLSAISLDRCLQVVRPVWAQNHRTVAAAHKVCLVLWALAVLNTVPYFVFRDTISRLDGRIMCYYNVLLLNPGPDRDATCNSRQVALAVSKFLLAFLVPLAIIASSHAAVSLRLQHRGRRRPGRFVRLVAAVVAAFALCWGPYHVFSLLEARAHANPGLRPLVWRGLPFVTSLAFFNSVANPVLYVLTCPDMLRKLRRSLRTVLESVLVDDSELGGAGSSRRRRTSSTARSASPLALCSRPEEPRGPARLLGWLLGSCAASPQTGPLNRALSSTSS
Description: Radioligand Binding Assay A ([3H]PGD2 filtration binding, HEK-hCRTH2 membranes). As to conditions: Table A, rated A-D. The protocol:
Radioligand binding assays were performed at room temperature in 50 mM Tris-HCl pH 7.4, 1 mM EDTA containing 2 mM MnCl2 and 3.0 nM [^3H]PGD2 (New England Nuclear, Boston, Mass.) (171 Ci mmol^−1), in a final volume of 0.2 ml. Competing ligands were diluted in dimethylsulfoxide (Me2SO) that was kept constant at 1% (v/v) of the final incubation volume. The reaction was initiated by the addition of 8-20 μg of membrane protein prepared from a human embryonic kidney (HEK)-hCRTH2 cell line. Total and non-specific binding were determined in the absence and the presence of 10 μM PGD2, respectively. Under these conditions, specific binding (total minus non-specific) of the radioligand to the receptor reached equilibrium within 50 min and was stable up to 180 min. The reaction was routinely conducted for 60 min at room temperature and terminated by rapid filtration through prewetted (0.3% polyethyleneimine) 96-well printed Filtermate™ (Wallac) using a Tomtec® harvester (Hamden, Conn.). After washing with cold buffer, the filter was dried for 2 minutes in microwave, and Meltilex Scintillator sheet (Wallac) was melted on for 2 min. The radioactivity was measured with Betaplate model 1205 (Wallac).
The term Ki denotes the dissociation constant of the complex between target and ligand, obtained from inhibition or displacement. Read a high Ki as weaker binding. For `O=C(O)CCCCc1cc2cc(C(=O)NCc3ccc(F)cc3)ccc2nc1-c1ccccc1` [Compound 2C, 6-[[[(4-fluorophenyl)methyl]amino]carbonyl]-2-phenyl-3-quinolinepentanoic acid], the inhibition constant (Ki) lay in the range of 2.1 to 20 nM. Consider `O=C(O)CCCCc1cc2cc(C(=O)OCc3ccccc3)ccc2nc1-c1ccccc1` [Compound 2D, 2-phenyl-6-[(phenylmethoxy)carbonyl]-3-quinolinepentanoic acid], for which the Ki fell in the range of 0.1 to 2 nM. As to `O=C(O)CCCCc1nc2cc(C(=O)NCc3ccc(OC(F)(F)F)cc3)ccc2cc1-c1ccccc1` [Compound 3, 5-(3-phenyl-7-(4-(trifluoromethoxy)benzylcarbamoyl)quinolin-2-yl)pentanoic acid], the Ki lay in the range of 2.1 to 20 nM. `O=C(O)CCCCc1nc2cc(C(=O)N3CCC(c4ccccc4)CC3)ccc2cc1-c1ccccc1` [Compound 3E, 3-phenyl-7-[(4-phenyl-1-piperidinyl)carbonyl]-2-quinolinepentanoic acid]: the Ki fell in the range of 2.1 to 20 nM. Still for that read-out and setting: under `C[C@@H](NC(=O)c1ccc2cc(-c3ccccc3)c(CCCCC(=O)O)nc2c1)c1ccc(Cl)cc1` [Compound 3F, 7-[[[1(R)-(4-chlorophenyl)ethyl]amino]carbonyl]-3-phenyl-2-quinolinepentanoic acid] stands 0.1 to 2 nM; under `C[C@H](NC(=O)c1ccc2cc(-c3ccccc3)c(CCCCC(=O)O)nc2c1)c1ccc(Cl)cc1` [Compound 3G, 7-[[[1(S)-(4-chlorophenyl)ethyl]amino]carbonyl]-3-phenyl-2-quinolinepentanoic acid], 2.1 to 20 nM. `O=C(O)CCCCc1nc2cc(C(=O)N3CC[C@@H](c4ccccc4)C3)ccc2cc1-c1ccccc1` [Compound 3H, 3-phenyl-7-[(3(S)-phenyl-1-pyrrolidinyl)carbonyl]-2-quinolinepentanoic acid] had a Ki of 2.1 to 20 nM. Turning to `O=C(O)CCCCc1nc2cc(C(=O)N3CCC[C@@H](c4ccccc4)C3)ccc2cc1-c1ccccc1` [Compound 3J, 3-phenyl-7-[(3(S)-phenyl-1-piperidinyl)carbonyl]-2-quinolinepentanoic acid], the Ki was 20.1 to 200 nM. `O=C(O)CCCCc1nc2cc(C(=O)N3CCC[C@H](c4ccccc4)C3)ccc2cc1-c1ccccc1` [Compound 3K, 3-phenyl-7-[(3(R)-phenyl-1-piperidinyl)carbonyl]-2-quinolinepentanoic acid] returned a Ki of 2.1 to 20 nM. In the case of `O=C(O)CCCCc1nc2cc(C(=O)N3CC(c4ccccc4)C3)ccc2cc1-c1ccccc1` [Compound 3L, 3-phenyl-7-[(3-phenyl-1-azetidinyl)carbonyl]-2-quinolinepentanoic acid], the Ki was 0.1 to 2 nM. On the same count and under the same terms, under `O=C(O)CCCCc1nc2cc(C(=O)N3CC[C@H](c4ccccc4)C3)ccc2cc1-c1ccccc1` [Compound 3i, 3-phenyl-7-[(3(R)-phenyl-1-pynolidinyl)carbonyl]-2-quinolinepentanoic acid] stands 2.1 to 20 nM.

In turn, `O=C(O)CCCCc1nc2cc(C(=O)NCc3cccc(Cl)c3)ccc2cc1-c1ccccc1` [Compound 4, 5-(7-(3-chlorobenzylcarbamoyl)-3-phenylquinolin-2-yl)pentanoic acid] came in with a Ki of 0.1 to 2 nM. For the compound `C[C@@H](NC(=O)c1ccc2cc(-c3ccccc3)c(CCCCC(=O)O)nc2c1)c1ccc(F)cc1` [Compound 4E, (R)-5-(7-(1-(4-fluorophenyl)ethylcarbamoyl)-3-phenylquinolin-2-yl)pentanoic acid], the inhibitory constant (Ki) lay within 0.1 to 2 nM. With `C[C@@H](NC(=O)c1ccc2nc(-c3ccc(F)cc3)c(CCCCC(=O)O)cc2c1)c1ccc(Cl)cc1` [Compound 5, 6-[[[1(R)-(4-chlorophenyl)ethyl]amino]carbonyl]-2-(4-fluorophenyl)-3-quinolinepentanoic acid], the Ki is 2.1 to 20 nM.

For the compound `O=C(O)CCCCc1cc2cc(C(=O)NC(c3ccccc3)c3ccccc3)ccc2nc1-c1ccc(F)cc1` [Compound 5AA, 5-(6-(benzhydrylcarbamoyl)-2-(4-fluorophenyl)quinolin-3-yl)pentanoic acid], the Ki was 2.1 to 20 nM.

`C[C@@H](CNC(=O)c1ccc2nc(-c3ccc(F)cc3)c(CCCCC(=O)O)cc2c1)c1ccccc1` [Compound 5AB, (R)-5-(2-(4-fluorophenyl)-6-((2-phenylpropyl)carbamoyl)quinolin-3-yl)pentanoic acid] yielded a Ki of 2.1 to 20 nM. As for `C[C@H](CNC(=O)c1ccc2nc(-c3ccc(F)cc3)c(CCCCC(=O)O)cc2c1)c1ccccc1` [Compound 5AC, (S)-5-(2-(4-fluorophenyl)-6-((2-phenylpropyl)carbamoyl)quinolin-3-yl)pentanoic acid], the Ki was 2.1 to 20 nM. Take `C[C@@H](NC(=O)c1ccc2nc(-c3ccc(F)cc3)c(CCCCC(=O)O)cc2c1)c1ccc(F)cc1` [Compound 5D, 2-(4-fluorophenyl)-6-[[[1(R)-(4-fluorophenyl)ethyl]amino]carbonyl]-3-quinolinepentanoic acid]: the Ki lay within 2.1 to 20 nM.

Consider `O=C(O)CCCCc1cc2cc(C(=O)N[C@@H]3CCc4ccccc43)ccc2nc1-c1ccc(F)cc1` [Compound 5E, 6-[[(2,3-dihydro-1H-inden-1(R)-yl)amino]carbonyl]-2-(4-fluorophenyl)-3-quinolinepentanoic acid], for which the inhibitory constant (Ki) lay in the range of 2.1 to 20 nM. On the same count and under the same terms, under `O=C(O)CCCCc1cc2cc(C(=O)N[C@@H]3CCc4ccc(F)cc43)ccc2nc1-c1ccc(F)cc1` [Compound 5F, 6-[[(6-fluoro-2,3-dihydro-1H-inden-1(R)-yl)amino]carbonyl]-2-(4-fluorophenyl)-3-quinolinepentanoic acid] stands 2.1 to 20 nM. Consider `O=C(O)CCCCc1cc2cc(C(=O)N[C@@H]3CCCc4ccccc43)ccc2nc1-c1ccc(F)cc1` [Compound 5G, 2-(4-fluorophenyl)-6-[[(1,2,3,4-tetrahydro-1(R)-naphthalenyl)amino]carbonyl]-3-quinolinepentanoic acid], for which the Ki lay within 2.1 to 20 nM.

In the case of `O=C(O)CCCCc1cc2cc(C(=O)N[C@@H]3CCCc4ccc(F)cc43)ccc2nc1-c1ccc(F)cc1` [Compound 5H, 2-(4-fluorophenyl)-6-[[(7-fluoro-1,2,3,4-tetrahydro-1(R)-naphthalenyl)amino]carbonyl]-3-quinolinepentanoic acid], the Ki was in the range of 2.1 to 20 nM. `C[C@H](NC(=O)c1ccc2nc(-c3ccc(F)cc3)c(CCCCC(=O)O)cc2c1)c1ccc(F)cc1` [Compound 5J, 2-(4-fluorophenyl)-6-[[[1(S)-(4-fluorophenyl)ethyl]amino]carbonyl]-3-quinolinepentanoic acid] registered an inhibition constant Ki of 2.1 to 20 nM.

Turning to `O=C(O)CCCCc1cc2cc(C(=O)N[C@H]3CCc4ccccc43)ccc2nc1-c1ccc(F)cc1` [Compound 5K, 6-[[(2,3-dihydro-1H-inden-1(S)-yl)amino]carbonyl]-2-(4-fluorophenyl)-3-quinolinepentanoic acid], the Ki lay in the range of 2.1 to 20 nM. With `O=C(O)CCCCc1cc2cc(C(=O)N[C@H]3CCc4ccc(F)cc43)ccc2nc1-c1ccc(F)cc1` [Compound 5L, 6-[[(6-fluoro-2,3-dihydro-1H-inden-1(S)-yl)amino]carbonyl]-2-(4-fluorophenyl)-3-quinolinepentanoic acid], the Ki was in the range of 2.1 to 20 nM. Compound `O=C(O)CCCCc1cc2cc(C(=O)N[C@H]3CCCc4ccccc43)ccc2nc1-c1ccc(F)cc1` [Compound 5M, 2-(4-fluorophenyl)-6-[[(1,2,3,4-tetrahydro-1(S)-naphthalenyl)amino]carbonyl]-3-quinolinepentanoic acid] displayed a Ki of 2.1 to 20 nM. In turn, `O=C(O)CCCCc1cc2cc(C(=O)N[C@H]3CCCc4ccc(F)cc43)ccc2nc1-c1ccc(F)cc1` [Compound 5N, 2-(4-fluorophenyl)-6-[[(7-fluoro-1,2,3,4-tetrahydro-1(S)-naphthalenyl)amino]carbonyl]-3-quinolinepentanoic acid] yielded a Ki of 20.1 to 200 nM. For the compound `O=C(O)CCCCc1cc2cc(C(=O)N[C@@H]3CCCc4cc(Cl)ccc43)ccc2nc1-c1ccc(F)cc1` [Compound 5P, 6-[[(6-chloro-1,2,3,4-tetrahydro-1(R)-naphthalenyl)amino]carbonyl]-2-(4-fluorophenyl)-3-quinolinepentanoic acid], the inhibition constant (Ki) is 2.1 to 20 nM.

Turning to `N#Cc1ccc([C@@H](NC(=O)c2ccc3nc(-c4ccc(F)cc4)c(CCCCC(=O)O)cc3c2)C(F)(F)F)cc1` [Compound 5Q, 6-[[[1(R)-(4-cyanophenyl)-2,2,2-trifluoroethyl]amino]carbonyl]-2-(4-fluorophenyl)-3-quinolinepentanoic acid], the Ki was in the range of 2.1 to 20 nM. Compound `O=C(O)CCCCc1cc2cc(C(=O)N[C@H]3CCc4cc(Cl)ccc43)ccc2nc1-c1ccc(F)cc1` [Compound 5R, 6-[[(5-chloro-2,3-dihydro-1H-inden-1(S)-yl)amino]carbonyl]-2-(4-fluorophenyl)-3-quinolinepentanoic acid] came in with a Ki of 2.1 to 20 nM.

The same experiment, now with this note: values in text.
`O=C(O)CCCCc1nc2cc(C(=O)N3CC[C@@H](c4ccccc4)C3)ccc2cc1-c1ccccc1` [Compound 3H, 3-phenyl-7-[(3(S)-phenyl-1-pyrrolidinyl)carbonyl]-2-quinolinepentanoic acid] registered an inhibitory constant (Ki) of 2.7 nM.

Compound `O=C(O)CCCCc1cc2cc(C(=O)N[C@@H]3CCc4ccc(F)cc43)ccc2nc1-c1ccc(F)cc1` [Compound 5F, 6-[[(6-fluoro-2,3-dihydro-1H-inden-1(R)-yl)amino]carbonyl]-2-(4-fluorophenyl)-3-quinolinepentanoic acid] yielded an inhibition constant Ki of 13.6 nM. For `O=C(O)CCCCc1cc2cc(C(=O)N[C@@H]3CCCc4ccccc43)ccc2nc1-c1ccc(F)cc1` [Compound 5G, 2-(4-fluorophenyl)-6-[[(1,2,3,4-tetrahydro-1(R)-naphthalenyl)amino]carbonyl]-3-quinolinepentanoic acid], affinity was put at a Ki of 2.6 nM. Still for that read-out and setting: the figure for `O=C(O)CCCCc1cc2cc(C(=O)N[C@H]3CCCc4ccc(F)cc43)ccc2nc1-c1ccc(F)cc1` [Compound 5N, 2-(4-fluorophenyl)-6-[[(7-fluoro-1,2,3,4-tetrahydro-1(S)-naphthalenyl)amino]carbonyl]-3-quinolinepentanoic acid] is 25.5 nM.
